Earlier results as cited in publication PMC4682187, “Fusarinine C, a novel siderophore‐based bifunctional chelator for radiolabeling with Gallium‐68” (Journal of Labelled Compounds & Radiopharmaceuticals, 2015).

How the values were obtained:
[1] = ^68Ga complex of TAFC
Text: To evaluate this hypothesis, a RGD peptide targeting the ...

[2] = dilution of DFO; at nanomolar level (<50 nM) DFO does not act as a good chelating agent for gallium
Text: Caraco et al. reported that dilution of DFO, an acyclic analogue of FSC, could cause the breakdown of the ^67Ga^3+–DFO complex.

| SMILES | Metabolic stability [1] | Stability of the complex on dilution [2] |
| --- | --- | --- |
| CC(=O)NC1CCCN(O)C(=O)/C=C(/C)CCOC(=O)C(NC(C)=O)CCCN(O)C(=O)/C=C(/C)CCOC(=O)C(NC(C)=O)CCCN(O)C(=O)/C=C(/C)CCOC1=O (centres unmarked) [TAFC, triacetylfusarinine] | excellent metabolic stabilities |  |
| CC(=O)N(O)CCCCCNC(=O)CCC(=O)N(O)CCCCCNC(=O)CCC(=O)N(O)CCCCCN [^67Ga^3+–DFO complex, desferoxamine B, metal not drawn] |  | breakdown |
